Here are results for seven compounds from PubChem BioAssay (NCI).

Some test systems named below: MDA-MB-435; M14 melanoma; TK-10 renal; SF-539 CNS; SK-OV-3 ovarian; K-562 leukemia; NCI-H522 lung; NCI/ADR-RES ovarian; RXF 393 renal; CCRF-CEM leukemia.
Holding throughout (test): NCI-60 cell line screen, 48 h

Values joined by “and” are separate entries in the source; they are usually repeats but may differ in a detail not shown here. Equal entries are not always repeated.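 Compound exposure: 48 hours, 5 concentrations, 96-well plates. Abbreviation: GI50, concentration required for 50% inhibition of growth. Definition used: TGI = concentration required for complete inhibition of growth.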

Regarding `CCCCCc1c(C)[nH]c(/C=C2\N=C(c3ccc[nH]3)C=C2OCc2ccccc2)c1C`, the GI50 in the experiment with MDA-MB-435 is 0.0367 µM and 0.0324 µM; in the experiment with M14 melanoma it was 0.0296 µM and 0.0252 µM; in the experiment with TK-10 renal, 0.0475 µM and 0.0418 µM; with SF-539 CNS it was 0.0668 µM and 0.0492 µM; with SK-OV-3 ovarian, 0.326 µM and 0.0978 µM; with K-562 leukemia, 0.0372 µM and 0.0448 µM. Moreover, the GI50 in the experiment with NCI-H522 lung was 0.0495 µM and 0.0237 µM; in the experiment on NCI/ADR-RES ovarian it was 0.255 µM and 0.0776 µM; in the experiment on RXF 393 renal it was 0.0697 µM and 0.0473 µM; with CCRF-CEM leukemia, 0.0261 µM and 0.0162 µM. In addition, the TGI with MDA-MB-435 was 0.296 µM and 0.134 µM; in the experiment on M14 melanoma, 0.0823 µM and 0.0748 µM; in the experiment with TK-10 renal it was 1.01 µM and 0.471 µM; in the experiment on SF-539 CNS, 1.08 µM and 0.263 µM; with SK-OV-3 ovarian it was 2.48 µM and 0.983 µM; in the experiment with NCI-H522 lung, 0.719 µM and 0.262 µM. The TGI in the experiment with NCI/ADR-RES ovarian was 1.46 µM and 0.761 µM; in the experiment with RXF 393 renal, 0.768 µM and 0.374 µM.
On to `O=C(CCl)Nc1cc(O)c2c(c1)C(=O)c1cccc(O)c1C2=O`, for which the GI50 in the experiment on MDA-MB-435 is 1.95 µM; with M14 melanoma, 1.25 µM; in the experiment on TK-10 renal it was 1.97 µM; in the experiment with SF-539 CNS it was 2.29 µM; with SK-OV-3 ovarian, 2.61 µM; in the experiment on K-562 leukemia, 0.353 µM. In addition, the GI50 is 0.172 µM in the experiment on NCI-H522 lung, 2.47 µM with NCI/ADR-RES ovarian, 1.72 µM in the experiment with RXF 393 renal and 0.314 µM in the experiment on CCRF-CEM leukemia. Further, the TGI in the experiment with MDA-MB-435 was determined as 4.72 µM; with M14 melanoma, 3.45 µM; in the experiment with TK-10 renal, 3.39 µM; in the experiment with SF-539 CNS, 6.6 µM; with SK-OV-3 ovarian it was 18.1 µM; with K-562 leukemia, 4.22 µM. The TGI was 0.384 µM with NCI-H522 lung, > 29.2 µM in the experiment on NCI/ADR-RES ovarian, 3.5 µM in the experiment with RXF 393 renal and 3.24 µM in the experiment on CCRF-CEM leukemia.
`O=C(O)C(=O)CBr`: the GI50 in the experiment on MDA-MB-435 is > 70.4 µM and 18 µM; in the experiment on M14 melanoma, > 89.1 µM and 44 µM; with TK-10 renal, > 39.7 µM and 11.4 µM; in the experiment with SF-539 CNS, > 41.1 µM and 16.8 µM; in the experiment with SK-OV-3 ovarian it was > 100 µM and 19.7 µM; in the experiment on K-562 leukemia it was > 22.2 µM and 23.8 µM. The GI50 with NCI-H522 lung was 2.22 µM; in the experiment with NCI/ADR-RES ovarian, > 54.6 µM and 20.2 µM; in the experiment with RXF 393 renal it was 64 µM and 17 µM; with CCRF-CEM leukemia, 14.4 µM and 7.12 µM. Moreover, the TGI in the experiment with MDA-MB-435 was > 100 µM and 32.7 µM; in the experiment with M14 melanoma, > 100 µM; with TK-10 renal it was > 55.3 µM and 24.6 µM; with SF-539 CNS it was > 56.3 µM and 31.5 µM; in the experiment with SK-OV-3 ovarian, > 100 µM and 36 µM; in the experiment on K-562 leukemia, > 68.2 µM and 59.1 µM. The TGI with NCI-H522 lung was > 31.9 µM and 4.66 µM; in the experiment with NCI/ADR-RES ovarian, > 94.4 µM and 44 µM; with RXF 393 renal it was > 100 µM and 31 µM; in the experiment on CCRF-CEM leukemia, > 52.2 µM and 38.6 µM.
On to `COc1cc(C2c3cc4c(cc3[C@@H](Nc3ccc(N)cc3)C3COC(=O)[C@H]23)OCO4)cc(OC)c1O` (some centres not stated), for which the TGI in the experiment on MDA-MB-435 is 29.6 µM; in the experiment with M14 melanoma, 18.6 µM; in the experiment on TK-10 renal it was 23.7 µM; in the experiment on SF-539 CNS, 6.51 µM; in the experiment with SK-OV-3 ovarian it was 17.3 µM; in the experiment on K-562 leukemia it was 46.3 µM. Besides, the TGI was 6.57 µM in the experiment with NCI-H522 lung; 44.5 µM in the experiment with NCI/ADR-RES ovarian; 13.2 µM with RXF 393 renal; 0.953 µM and 5.61 µM with CCRF-CEM leukemia. Moreover, the GI50 is 0.652 µM in the experiment with M14 melanoma; 0.729 µM with SF-539 CNS; 0.805 µM in the experiment with SK-OV-3 ovarian; 0.789 µM in the experiment with NCI-H522 lung; 0.271 µM in the experiment with CCRF-CEM leukemia.
`CC(=O)N1CCN(CCOc2ccc(C3CCN(C4=Nn5c(nnc5C(F)(F)F)CC4)CC3)cc2)CC1`: the GI50 with MDA-MB-435 was 10.2 µM; with M14 melanoma, 11.1 µM; in the experiment with TK-10 renal, 7.31 µM; in the experiment with SF-539 CNS, 22.5 µM; in the experiment with SK-OV-3 ovarian, 21.1 µM; in the experiment with K-562 leukemia, 8.25 µM. In addition, the GI50 in the experiment with NCI-H522 lung is 5 µM; with NCI/ADR-RES ovarian, 37 µM; in the experiment with RXF 393 renal, 19.4 µM; in the experiment with CCRF-CEM leukemia, 20.4 µM. In addition, the TGI with MDA-MB-435, in the experiment with M14 melanoma, with TK-10 renal, with SF-539 CNS, in the experiment on SK-OV-3 ovarian and with K-562 leukemia was > 100 µM each time. Further, the TGI is > 100 µM with NCI-H522 lung, > 100 µM in the experiment with NCI/ADR-RES ovarian, > 66 µM in the experiment with RXF 393 renal and > 100 µM in the experiment on CCRF-CEM leukemia.
`CCCn1c(N)c(C(=O)CNc2ccc(I)cc2)c(=O)[nH]c1=O`: the GI50 in the experiment on MDA-MB-435 is 6.01 µM; in the experiment on M14 melanoma it was > 100 µM; with TK-10 renal, 16.7 µM; with SF-539 CNS, 0.84 µM; with SK-OV-3 ovarian, > 100 µM; in the experiment on NCI-H522 lung it was 16 µM. Also, the GI50 in the experiment with NCI/ADR-RES ovarian was > 25.3 µM; in the experiment with RXF 393 renal it was 21.5 µM; in the experiment on CCRF-CEM leukemia it was 0.543 µM. Besides, the TGI is > 100 µM in the experiment on MDA-MB-435; > 100 µM with M14 melanoma; > 100 µM in the experiment with TK-10 renal; > 45.6 µM in the experiment on SF-539 CNS; > 100 µM in the experiment on SK-OV-3 ovarian; > 100 µM in the experiment on K-562 leukemia. Also, the TGI in the experiment with NCI-H522 lung, in the experiment with NCI/ADR-RES ovarian, in the experiment on RXF 393 renal and in the experiment on CCRF-CEM leukemia was > 100 µM throughout.
In the case of `Cn1ncc(-c2ccc3c(=O)[nH]nc(CN)c3c2)c1-c1c(F)cc2ccccc2c1C#N`, the GI50 in the experiment on MDA-MB-435 is 3.72 µM; in the experiment with M14 melanoma it was 6.97 µM; with TK-10 renal it was 10.7 µM; with SF-539 CNS, 7.6 µM; in the experiment on SK-OV-3 ovarian, 13.6 µM; with K-562 leukemia it was 3.41 µM. Besides, the GI50 is 4.17 µM in the experiment with NCI-H522 lung, 12.7 µM in the experiment on NCI/ADR-RES ovarian, 4.6 µM in the experiment with RXF 393 renal and 10.7 µM with CCRF-CEM leukemia. Moreover, the TGI was 14.5 µM in the experiment with MDA-MB-435; 21.1 µM in the experiment with M14 melanoma; 24.1 µM in the experiment on TK-10 renal; 20.8 µM with SF-539 CNS; 26.8 µM with SK-OV-3 ovarian; 38.3 µM in the experiment on K-562 leukemia. Further, the TGI with NCI-H522 lung is 17.7 µM; in the experiment with NCI/ADR-RES ovarian, 50.5 µM; in the experiment on RXF 393 renal, 16.6 µM; in the experiment with CCRF-CEM leukemia, 57.3 µM.
